Test results: the NIST ThermoML archive (doi:10.1016/j.jct.2019.03.023)
± gives the expanded uncertainty stated by the source.

Assay: molar heat capacity at constant volume
Details: Fluid (supercritical or subcritical phases), Vacuum adiabatic calorimetry

CC(C)O [propan-2-ol]
Details	molar heat capacity at constant volume [J/K/mol]
501.94 K, Mass density=343.1 kg/m3	317.72 ± 9.6
502.03 K, Mass density=266.3 kg/m3	345.37 ± 10
502.04 K, Mass density=343.1 kg/m3	315.2 ± 9.4
502.13 K, Mass density=266.3 kg/m3	347.59 ± 10
502.13 K, Mass density=343.1 kg/m3	309.67 ± 9.3
502.22 K, Mass density=266.3 kg/m3	350.23 ± 11
502.22 K, Mass density=343.1 kg/m3	314.54 ± 9.4
502.31 K, Mass density=266.3 kg/m3	348.13 ± 10
502.32 K, Mass density=343.1 kg/m3	312.25 ± 9.4
502.41 K, Mass density=266.3 kg/m3	351.2 ± 11
502.41 K, Mass density=343.1 kg/m3	317.66 ± 9.6
502.5 K, Mass density=266.3 kg/m3	350.29 ± 11
502.5 K, Mass density=343.1 kg/m3	312.07 ± 9.4
502.6 K, Mass density=266.3 kg/m3	350.29 ± 11
502.6 K, Mass density=343.1 kg/m3	310.39 ± 9.3
503.92 K, Mass density=329.2 kg/m3	322.05 ± 9.7
504.02 K, Mass density=329.2 kg/m3	325.72 ± 9.8
504.11 K, Mass density=329.2 kg/m3	323.31 ± 9.7
504.3 K, Mass density=329.2 kg/m3	318.86 ± 9.6
504.37 K, Mass density=281.9 kg/m3	348.13 ± 10
504.46 K, Mass density=281.9 kg/m3	351.02 ± 11
504.5 K, Mass density=329.2 kg/m3	325.72 ± 9.8
504.56 K, Mass density=234.3 kg/m3	386.83 ± 12
504.56 K, Mass density=281.9 kg/m3	346.57 ± 10
504.59 K, Mass density=329.2 kg/m3	319.65 ± 9.6
504.65 K, Mass density=234.3 kg/m3	381.48 ± 11
504.65 K, Mass density=281.9 kg/m3	351.08 ± 11
504.74 K, Mass density=234.3 kg/m3	386.35 ± 12
504.74 K, Mass density=281.9 kg/m3	346.63 ± 10
504.84 K, Mass density=234.3 kg/m3	392.36 ± 12
504.84 K, Mass density=281.9 kg/m3	355.64 ± 11
504.93 K, Mass density=281.9 kg/m3	355.64 ± 11
504.97 K, Mass density=234.3 kg/m3	391.52 ± 12
504.98 K, Mass density=329.2 kg/m3	328.36 ± 9.9
505.02 K, Mass density=281.9 kg/m3	349.27 ± 10
505.08 K, Mass density=329.2 kg/m3	326.92 ± 9.8
505.12 K, Mass density=234.3 kg/m3	387.07 ± 12
505.12 K, Mass density=281.9 kg/m3	354.2 ± 11
505.21 K, Mass density=234.3 kg/m3	382.87 ± 11
505.21 K, Mass density=281.9 kg/m3	355.76 ± 11
505.21 K, Mass density=324.5 kg/m3	333.29 ± 10
505.27 K, Mass density=329.2 kg/m3	325.96 ± 9.8
505.3 K, Mass density=234.3 kg/m3	387.13 ± 12
505.3 K, Mass density=324.5 kg/m3	339.78 ± 10
505.37 K, Mass density=329.2 kg/m3	325.35 ± 9.8
505.4 K, Mass density=234.3 kg/m3	387.13 ± 12
505.49 K, Mass density=288.99 kg/m3	349.87 ± 11
505.58 K, Mass density=288.99 kg/m3	350.77 ± 11
505.58 K, Mass density=324.5 kg/m3	333.05 ± 10
505.68 K, Mass density=288.99 kg/m3	343.14 ± 10
505.68 K, Mass density=324.5 kg/m3	338.82 ± 10
505.77 K, Mass density=288.99 kg/m3	350.47 ± 11
505.77 K, Mass density=324.5 kg/m3	335.27 ± 10
505.77 K, Mass density=343.1 kg/m3	323.67 ± 9.7
505.86 K, Mass density=288.99 kg/m3	346.63 ± 10
505.86 K, Mass density=324.5 kg/m3	337.13 ± 10
505.86 K, Mass density=343.1 kg/m3	325.29 ± 9.8
505.96 K, Mass density=288.99 kg/m3	350.53 ± 11
505.96 K, Mass density=324.5 kg/m3	332.09 ± 10
505.96 K, Mass density=343.1 kg/m3	323.97 ± 9.7
506.05 K, Mass density=288.99 kg/m3	354.32 ± 11
506.05 K, Mass density=324.5 kg/m3	336.65 ± 10
506.05 K, Mass density=343.1 kg/m3	326.26 ± 9.8
506.14 K, Mass density=288.99 kg/m3	350.59 ± 11
506.14 K, Mass density=324.5 kg/m3	342.42 ± 10
506.14 K, Mass density=343.1 kg/m3	328.36 ± 9.9
506.24 K, Mass density=288.99 kg/m3	350.65 ± 11
506.24 K, Mass density=324.5 kg/m3	340.02 ± 10
506.24 K, Mass density=343.1 kg/m3	327.04 ± 9.8
506.33 K, Mass density=274 kg/m3	361.17 ± 11
506.33 K, Mass density=288.99 kg/m3	346.33 ± 10
506.33 K, Mass density=324.5 kg/m3	336.41 ± 10
506.33 K, Mass density=343.1 kg/m3	326.44 ± 9.8
506.42 K, Mass density=274 kg/m3	362.97 ± 11
506.42 K, Mass density=343.1 kg/m3	329.92 ± 9.9
506.43 K, Mass density=329.2 kg/m3	328.06 ± 9.9
506.52 K, Mass density=274 kg/m3	361.05 ± 11
506.52 K, Mass density=288.99 kg/m3	351.92 ± 11
506.52 K, Mass density=324.5 kg/m3	341.04 ± 10
506.52 K, Mass density=343.1 kg/m3	328.3 ± 9.9
506.53 K, Mass density=329.2 kg/m3	330.64 ± 9.9
506.61 K, Mass density=274 kg/m3	365.62 ± 11
506.61 K, Mass density=288.99 kg/m3	355.52 ± 11
506.61 K, Mass density=343.1 kg/m3	329.98 ± 9.9
506.62 K, Mass density=329.2 kg/m3	335.93 ± 10
506.7 K, Mass density=288.99 kg/m3	357.63 ± 11
506.7 K, Mass density=324.5 kg/m3	343.74 ± 10
506.72 K, Mass density=329.2 kg/m3	332.69 ± 10
506.8 K, Mass density=288.99 kg/m3	349.21 ± 10
506.8 K, Mass density=343.1 kg/m3	329.08 ± 9.9
506.82 K, Mass density=329.2 kg/m3	332.27 ± 10
506.89 K, Mass density=288.99 kg/m3	354.98 ± 11
